Article PMC10085937 (Clinical Pharmacokinetics, 2023)
Entries after “also recorded” stand apart in the source; their conditions may differ. Read-outs that look alike come from different tables or passages of the source.

What was measured:
[1] = type: in vivo, human; conditions: for Effect of multiple-dose cilofexor on pravastatin exposure (AUC and Cmax): pravastatin 40 mg; for Effect of multiple-dose cilofexor on pravastatin exposure (AUC and Cmax) / Effect of multiple-dose cilofexor on rosuvastatin exposure (AUC and Cmax): vs alone; for Effect of multiple-dose cilofexor on midazolam exposure (AUC and Cmax): midazolam 2 mg, vs midazolam alone; for Effect of multiple-dose cilofexor on rosuvastatin exposure (AUC and Cmax): rosuvastatin 10 mg
[2] = system: CYP2C9; conditions: in vitro; cited from earlier work
[3] = system: sodium taurocholate co-transporting polypeptide (NTCP); conditions: in vitro; cited from earlier work
[4] = system: CYP2C8; conditions: in vitro; cited from earlier work
[5] = system: breast cancer resistance protein (BCRP); conditions: in vitro; cited from earlier work
[6] = system: CYP3A; conditions: in vitro; cited from earlier work
[7] = system: NTCP; conditions: in vitro; cited from earlier work
[8] = system: CYP3A; conditions: in vitro; cited from earlier work; remark: listed apart in the source
[9] = system: bile salt export pump; conditions: in vitro; cited from earlier work
[10] = system: organic cation transporter (OCT)2; conditions: in vitro; cited from earlier work
[11] = system: BCRP; conditions: in vitro; cited from earlier work
[12] = dose range of 10 to 100 mg; cited from earlier work
[13] = system: P-gp; conditions: in vitro; cited from earlier work
[14] = system: CYP2C19; conditions: in vitro; cited from earlier work
[15] = system: MATE2-K; conditions: in vitro; cited from earlier work
[16] = system: P-glycoprotein (P-gp); conditions: in vitro; cited from earlier work
[17] = system: organic anion transporter (OAT)1; conditions: in vitro; cited from earlier work
[18] = type: in vivo, human; conditions: for Effect of grapefruit juice on cilofexor exposure (AUC and Cmax): grapefruit juice 16 ounces; for Effect of grapefruit juice on cilofexor exposure (AUC and Cmax) / Effect of multiple-dose voriconazole on cilofexor exposure (AUC): vs cilofexor alone; for Effect of multiple-dose voriconazole on cilofexor exposure (AUC): voriconazole 200 mg BID
[19] = system: OATP1B3; conditions: in vitro; ref data on file, Gilead Sciences, Inc.; cited from earlier work
[20] = system: OATP1B1; conditions: in vitro; cited from earlier work
[21] = system: OATP1B1; conditions: in vitro; ref data on file, Gilead Sciences, Inc.; cited from earlier work
[22] = cited from earlier work
[23] = system: OATP2B1; conditions: in vitro; cited from earlier work
[24] = system: CYP2C8; conditions: in vitro; rCYP2C8 showing the fastest rate of metabolism; cited from earlier work
[25] = system: OAT3; conditions: in vitro; cited from earlier work
[26] = system: OATP2B1; conditions: in vitro; ref data on file, Gilead Sciences, Inc.; cited from earlier work
[27] = cited from earlier work; remark: listed apart in the source
[28] = system: multidrug and toxin extrusion protein (MATE) 1; conditions: in vitro; cited from earlier work
[29] = system: OATP1B3; conditions: in vitro; cited from earlier work
[30] = following multiple-dose rifampin 600 mg
[31] = with multiple-dose gemfibrozil 600 mg BID
[32] = with single-dose cyclosporine 600 mg
[33] = with single-dose rifampin 600 mg

In the case of CC(C)c1c(C(=O)Nc2ccccc2O)c(-c2ccccc2)c(-c2ccc(F)cc2)n1CC[C@@H](O)C[C@@H](O)CC(=O)O [o-OH-atorvastatin, o-hydroxyatorvastatin], the “o-OH-atorvastatin AUC and Cmax with multiple-dose cilofexor compared to atorvastatin alone” value ([1]; atorvastatin 10 mg) is reported as “similar”.

For CC[C@H](C)C(=O)O[C@H]1C[C@H](O)C=C2C=C[C@H](C)[C@H](CC[C@@H](O)C[C@@H](O)CC(=O)O)[C@H]21 [pravastatin], the “Effect of multiple-dose cilofexor on pravastatin exposure (AUC and Cmax)” value [1] was “did not affect; also recorded: did not alter” and the “Effect of multiple-dose cilofexor on pravastatin exposure (AUC and Cmax)” value ([1]; listed as Pravastatin) was “similar”.

In the case of O=C(O)c1ccnc(N2CC(O)(c3ccc(OCc4c(-c5c(Cl)cccc5Cl)noc4C4CC4)cc3Cl)C2)c1 [Cilofexor], the Mechanism-based inhibition [2] is listed as “not a mechanism-based inhibitor”, the “Substrate of NTCP” value [3] is listed as “substrate” and the Mechanism-based inhibition [4] is listed as “not a mechanism-based inhibitor”. For the same molecule, the “Substrate of BCRP” value [5] was “substrate”, the “Substrate of CYP3A” value [6] was “substrate” and the “Inhibition of NTCP” value [7] was “little to no inhibition”. For the same molecule, the Mechanism-based inhibition [8] was “not a mechanism-based inhibitor”, the “Inhibition of bile salt export pump” value [9] was “little to no inhibition” and the “Inhibition of OCT2” value [10] was “little to no inhibition”. For the same molecule, the “Inhibition of BCRP” value [11] was “little to no inhibition”, the “Dose proportionality of plasma exposure” value [12] was “less than dose-proportional” and the “Inhibition of P-gp” value [13] was “little to no inhibition”. The “Substrate of CYP2C19” value [14] was “substrate”, the “Inhibition of MATE2-K” value [15] was “little to no inhibition” and the “Substrate of P-gp” value [16] was “substrate”. The “Inhibition of OAT1” value [17] was “little to no inhibition”, the “Cilofexor AUC compared with cilofexor alone” value [18, 30] was 33% and the “Cilofexor Cmax compared with cilofexor alone” value [18, 30] was 35%. The “Effect of grapefruit juice on cilofexor exposure (AUC and Cmax)” value [18] was “similar”, the “Effect of grapefruit juice on cilofexor exposure (AUC and Cmax)” value ([18]; listed as cilofexor) was “did not affect” and the “Effect of multiple-dose voriconazole on cilofexor exposure (AUC)” value [18] was “similar”. For the same molecule, the “Effect of multiple-dose voriconazole on cilofexor exposure (AUC)” value ([18]; listed as cilofexor) was “did not affect; also recorded: did not impact”, the “Cilofexor AUC compared with cilofexor alone” value [18, 31] was 175% and the “Cilofexor Cmax compared with cilofexor alone” value [18, 31] was 139%. For the same molecule, the “Cilofexor Cmax lower than cilofexor alone” value ([18]; with multiple-dose voriconazole) was 23%, the “Median cilofexor t½ longer than cilofexor alone” value ([18]; with single-dose cyclosporine) was “approximately 2.5 fold” and the “Cilofexor AUC compared with cilofexor alone” value [18, 32] was 651%. For the same molecule, the “Cilofexor Cmax compared with cilofexor alone” value [18, 32] was 512%, the “Median cilofexor t½ longer than cilofexor alone” value ([18]; with single-dose rifampin) was “approximately 2.8 fold” and the “Cilofexor AUC compared with cilofexor alone” value [18, 33] was 795%. The “Cilofexor Cmax compared with cilofexor alone” value [18, 33] was 547%, the IC50 [19] was 410 nM and the “Substrate of OATP1B1” value [20] was “substrate”. For the same molecule, the IC50 [21] was 680 nM, the “Protein binding in human plasma” value [22] was > 99% and the “Substrate of OATP2B1” value [23] was “substrate”. For the same molecule, the “Substrate of CYP2C8” value [24] was “substrate”, the “Inhibition of OAT3” value [25] was “little to no inhibition” and the IC50 [26] was 210 nM. The “Cilofexor dose eliminated in feces” value [27] was 96.7%, the “Dose remaining as intact cilofexor (feces)” value [27] was 34.1% and the “Inhibition of MATE1” value [28] was “little to no inhibition”. The “Substrate of OATP1B3” value [29] was “substrate”.

In the case of Cc1ncc2n1-c1ccc(Cl)cc1C(c1ccccc1F)=NC2 [midazolam], the “Effect of multiple-dose cilofexor on midazolam exposure (AUC and Cmax)” value [1] is reported as “did not affect; also recorded: did not alter” and the “Effect of multiple-dose cilofexor on midazolam exposure (AUC and Cmax)” value ([1]; listed as Midazolam) is reported as “similar”.

With CC(C)c1nc(N(C)S(C)(=O)=O)nc(-c2ccc(F)cc2)c1/C=C/[C@@H](O)C[C@@H](O)CC(=O)O [rosuvastatin] the “Effect of multiple-dose cilofexor on rosuvastatin exposure (AUC and Cmax)” value [1] was “did not alter” and the “Effect of multiple-dose cilofexor on rosuvastatin exposure (AUC and Cmax)” value ([1]; listed as Rosuvastatin) was “similar”.
